Experimental findings from ChEMBL document CHEMBL1773037, “Evaluation of superior BACE1 cleavage sequences containing unnatural amino acids” (Bioorg Med Chem, 2011) are described below.

Starred links: 1 amine or outer side, 2 acyl side, 3 side chain; linkers in the order of their positions; H or OH if unused. Non-standard residues stand in square brackets, D forms with d. Residues, ends and D or L forms follow the SMILES beside them. X1 = O=C(O)[C@@H]1Cc2ccccc2CN1[C@H](N[*:1])C(=O)[*:2]; 2Thi = N[C@@H](Cc1cccs1)C(=O)O; Cha = N[C@@H](CC1CCCCC1)C(=O)O; Cit = NC(=O)NCCC[C@H](N)C(=O)O; Phg = N[C@H](C(=O)O)c1ccccc1; Tle = CC(C)(C)[C@H](N)C(=O)O; Nva = CCC[C@H](N)C(=O)O; Abu = CC[C@H](N)C(=O)O

This test addresses Beta-secretase 1 (Homo sapiens) (UniProt P56817). The test is described as follows: Activity of recombinant BACE assessed as retention time of substrate by HPLC method.

Sequence of Beta-secretase 1 (Homo sapiens) (P56817 whole entry): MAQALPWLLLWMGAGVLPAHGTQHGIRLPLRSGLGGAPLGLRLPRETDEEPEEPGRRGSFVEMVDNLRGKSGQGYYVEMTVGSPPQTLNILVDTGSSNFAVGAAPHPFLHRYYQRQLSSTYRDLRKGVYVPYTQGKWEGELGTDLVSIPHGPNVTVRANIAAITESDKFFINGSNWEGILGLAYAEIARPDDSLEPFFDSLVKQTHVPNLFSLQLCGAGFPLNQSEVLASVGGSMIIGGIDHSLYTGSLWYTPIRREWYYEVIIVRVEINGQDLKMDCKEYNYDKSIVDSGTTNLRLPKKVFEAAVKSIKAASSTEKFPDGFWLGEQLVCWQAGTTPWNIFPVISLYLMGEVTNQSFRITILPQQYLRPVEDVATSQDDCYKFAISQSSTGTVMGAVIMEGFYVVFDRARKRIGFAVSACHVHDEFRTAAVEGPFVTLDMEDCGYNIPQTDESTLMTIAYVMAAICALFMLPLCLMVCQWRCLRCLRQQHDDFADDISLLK

`CC[C@H](C)[C@H](N)C(=O)N[C@@H](CO)C(=O)N[C@@H](CCC(=O)O)C(=O)N[C@H](C(=O)N[C@@H](CC(N)=O)C(=O)N[C@@H](CC(C)C)C(=O)N[C@@H](CC(=O)O)C(=O)N[C@@H](C)C(=O)N[C@@H](CCC(=O)O)C(=O)N[C@@H](Cc1ccccc1)C(=O)N[C@@H](CCCNC(=N)N)C(=O)N[C@@H](Cc1cnc[nH]1)C(N)=O)C(C)(C)C` (H-ISE[Tle]NLDAEFRH-NH2): the retention time stood at 0.517 h. The same measure for `CC[C@H](C)[C@H](N)C(=O)N[C@@H](CO)C(=O)N[C@@H](CCC(=O)O)C(=O)N[C@@H](CCC(=O)O)C(=O)N[C@@H](CC(N)=O)C(=O)N[C@@H](CC(C)C)C(=O)N[C@@H](CC(=O)O)C(=O)N[C@@H](C)C(=O)N[C@@H](CCC(=O)O)C(=O)N[C@@H](Cc1ccccc1)C(=O)N[C@@H](CCCNC(=N)N)C(=O)N[C@@H](Cc1cnc[nH]1)C(N)=O` (H-ISEENLDAEFRH-NH2): 0.457 h; for `CC[C@H](C)[C@H](N)C(=O)N[C@@H](CO)C(=O)N[C@@H](CC(=O)O)C(=O)N[C@H](C(=O)N[C@@H](CC(N)=O)C(=O)N[C@@H](CC(C)C)C(=O)N[C@@H](CC(=O)O)C(=O)N[C@@H](C)C(=O)N[C@@H](CCC(=O)O)C(=O)N[C@@H](Cc1ccccc1)C(=O)N[C@@H](CCCNC(=N)N)C(=O)N[C@@H](Cc1cnc[nH]1)C(N)=O)C(C)C` (H-ISDVNLDAEFRH-NH2): 0.474 h. To `CCC[C@H](NC(=O)[C@H](CO)NC(=O)[C@@H](N)[C@@H](C)CC)C(=O)N[C@H](C(=O)N[C@@H](CC(N)=O)C(=O)N[C@@H](CC(C)C)C(=O)N[C@@H](CC(=O)O)C(=O)N[C@@H](C)C(=O)N[C@@H](CCC(=O)O)C(=O)N[C@@H](Cc1ccccc1)C(=O)N[C@@H](CCCNC(=N)N)C(=O)N[C@@H](Cc1cnc[nH]1)C(N)=O)C(C)C` (H-IS[Nva]VNLDAEFRH-NH2) belongs 0.567 h; to `CC[C@H](NC(=O)[C@@H](NC(=O)[C@H](CCC(=O)O)NC(=O)[C@H](CO)NC(=O)[C@@H](N)[C@@H](C)CC)C(C)C)C(=O)N[C@@H](CC(C)C)C(=O)N[C@@H](CC(=O)O)C(=O)N[C@@H](C)C(=O)N[C@@H](CCC(=O)O)C(=O)N[C@@H](Cc1ccccc1)C(=O)N[C@@H](CCCNC(=N)N)C(=O)N[C@@H](Cc1cnc[nH]1)C(N)=O` (H-ISEV[Abu]LDAEFRH-NH2), 0.5 h. The same measure for `CC[C@H](C)[C@H](N)C(=O)N[C@@H](CO)C(=O)N[C@@H](CCC(=O)O)C(=O)N[C@@H](CCCNC(N)=O)C(=O)N[C@@H](CC(N)=O)C(=O)N[C@@H](CC(C)C)C(=O)N[C@@H](CC(=O)O)C(=O)N[C@@H](C)C(=O)N[C@@H](CCC(=O)O)C(=O)N[C@@H](Cc1ccccc1)C(=O)N[C@@H](CCCNC(=N)N)C(=O)N[C@@H](Cc1cnc[nH]1)C(N)=O` (H-ISE[Cit]NLDAEFRH-NH2): 0.438 h. Take `CC[C@H](C)[C@H](N)C(=O)N[C@@H](CO)C(=O)N[C@H](C(=O)N[C@H](C(=O)N[C@@H](CC(N)=O)C(=O)N[C@@H](CC(C)C)C(=O)N[C@@H](CC(=O)O)C(=O)N[C@@H](C)C(=O)N[C@@H](CCC(=O)O)C(=O)N[C@@H](Cc1ccccc1)C(=O)N[C@@H](CCCNC(=N)N)C(=O)N[C@@H](Cc1cnc[nH]1)C(N)=O)C(C)C)N1Cc2ccccc2C[C@H]1C(=O)O` (H-IS[X1]VNLDAEFRH-NH2): the retention time turned out to be 0.628 h. For `CC[C@H](C)[C@H](N)C(=O)N[C@@H](CO)C(=O)N[C@@H](CCC(=O)O)C(=O)N[C@H](C(=O)N[C@@H](Cc1ccccc1)C(=O)N[C@@H](CC(C)C)C(=O)N[C@@H](CC(=O)O)C(=O)N[C@@H](C)C(=O)N[C@@H](CCC(=O)O)C(=O)N[C@@H](Cc1ccccc1)C(=O)N[C@@H](CCCNC(=N)N)C(=O)N[C@@H](Cc1cnc[nH]1)C(N)=O)C(C)C` (H-ISEVFLDAEFRH-NH2), the retention time stood at 0.565 h. To `CC[C@H](C)[C@H](N)C(=O)N[C@@H](CO)C(=O)N[C@@H](Cc1cccs1)C(=O)N[C@H](C(=O)N[C@@H](CC(N)=O)C(=O)N[C@@H](CC(C)C)C(=O)N[C@@H](CC(=O)O)C(=O)N[C@@H](C)C(=O)N[C@@H](CCC(=O)O)C(=O)N[C@@H](Cc1ccccc1)C(=O)N[C@@H](CCCNC(=N)N)C(=O)N[C@@H](Cc1cnc[nH]1)C(N)=O)C(C)C` (H-IS[2Thi]VNLDAEFRH-NH2) belongs 0.591 h. As for `CC[C@H](C)[C@H](N)C(=O)N[C@@H](CO)C(=O)N[C@@H](CCC(=O)O)C(=O)N[C@H](C(=O)N[C@@H](CC(N)=O)C(=O)N[C@@H](CC(C)C)C(=O)N[C@@H](CC1CCCCC1)C(=O)N[C@@H](C)C(=O)N[C@@H](CCC(=O)O)C(=O)N[C@@H](Cc1ccccc1)C(=O)N[C@@H](CCCNC(=N)N)C(=O)N[C@@H](Cc1cnc[nH]1)C(N)=O)C(C)C` (H-ISEVNL[Cha]AEFRH-NH2), the retention time turned out to be 0.727 h. Regarding `CC[C@H](C)[C@H](N)C(=O)N[C@@H](CO)C(=O)N[C@@H](CCC(=O)O)C(=O)N[C@H](C(=O)N[C@@H](CC(N)=O)C(=O)N[C@@H](CC(C)C)C(=O)N[C@@H](Cc1cccs1)C(=O)N[C@@H](C)C(=O)N[C@@H](CCC(=O)O)C(=O)N[C@@H](Cc1ccccc1)C(=O)N[C@@H](CCCNC(=N)N)C(=O)N[C@@H](Cc1cnc[nH]1)C(N)=O)C(C)C` (H-ISEVNL[2Thi]AEFRH-NH2), the retention time was determined as 0.656 h. With `CC[C@H](C)[C@H](N)C(=O)N[C@@H](CO)C(=O)N[C@@H](CCC(N)=O)C(=O)N[C@H](C(=O)N[C@@H](CC(N)=O)C(=O)N[C@@H](CC(C)C)C(=O)N[C@@H](CC(=O)O)C(=O)N[C@@H](C)C(=O)N[C@@H](CCC(=O)O)C(=O)N[C@@H](Cc1ccccc1)C(=O)N[C@@H](CCCNC(=N)N)C(=O)N[C@@H](Cc1cnc[nH]1)C(N)=O)C(C)C` (H-ISQVNLDAEFRH-NH2), the retention time is 0.469 h. To `CC[C@H](C)[C@H](N)C(=O)N[C@@H](CO)C(=O)N[C@@H](CCC(=O)O)C(=O)N[C@H](C(=O)N[C@H](C(=O)N[C@@H](CC(C)C)C(=O)N[C@@H](CC(=O)O)C(=O)N[C@@H](C)C(=O)N[C@@H](CCC(=O)O)C(=O)N[C@@H](Cc1ccccc1)C(=O)N[C@@H](CCCNC(=N)N)C(=O)N[C@@H](Cc1cnc[nH]1)C(N)=O)C(C)(C)C)C(C)C` (H-ISEV[Tle]LDAEFRH-NH2) belongs 0.531 h; to `CC[C@H](C)[C@H](N)C(=O)N[C@@H](CO)C(=O)N[C@@H](CCC(=O)O)C(=O)N[C@H](C(=O)N[C@@H](CC(N)=O)C(=O)N[C@@H](CC(C)C)C(=O)N[C@@H](CCC(N)=O)C(=O)N[C@@H](C)C(=O)N[C@@H](CCC(=O)O)C(=O)N[C@@H](Cc1ccccc1)C(=O)N[C@@H](CCCNC(=N)N)C(=O)N[C@@H](Cc1cnc[nH]1)C(N)=O)C(C)C` (H-ISEVNLQAEFRH-NH2), 0.52 h. To `CC[C@H](C)[C@H](N)C(=O)N[C@@H](CO)C(=O)N[C@@H](CCC(=O)O)C(=O)N[C@H](C(=O)N[C@@H](CC(N)=O)C(=O)N[C@@H](CC(C)C)C(=O)N[C@H](C(=O)N[C@@H](C)C(=O)N[C@@H](CCC(=O)O)C(=O)N[C@@H](Cc1ccccc1)C(=O)N[C@@H](CCCNC(=N)N)C(=O)N[C@@H](Cc1cnc[nH]1)C(N)=O)C(C)(C)C)C(C)C` (H-ISEVNL[Tle]AEFRH-NH2) belongs 0.629 h. To `CC[C@H](C)[C@H](N)C(=O)N[C@@H](CO)C(=O)N[C@@H](CCC(=O)O)C(=O)N[C@H](C(=O)N[C@H](C(=O)N[C@@H](CC(C)C)C(=O)N[C@@H](CC(=O)O)C(=O)N[C@@H](C)C(=O)N[C@@H](CCC(=O)O)C(=O)N[C@@H](Cc1ccccc1)C(=O)N[C@@H](CCCNC(=N)N)C(=O)N[C@@H](Cc1cnc[nH]1)C(N)=O)c1ccccc1)C(C)C` (H-ISEV[Phg]LDAEFRH-NH2) belongs 0.541 h; to `CC[C@H](C)[C@H](N)C(=O)N[C@@H](CO)C(=O)N[C@@H](CC1CCCCC1)C(=O)N[C@H](C(=O)N[C@@H](CC(N)=O)C(=O)N[C@@H](CC(C)C)C(=O)N[C@@H](CC(=O)O)C(=O)N[C@@H](C)C(=O)N[C@@H](CCC(=O)O)C(=O)N[C@@H](Cc1ccccc1)C(=O)N[C@@H](CCCNC(=N)N)C(=O)N[C@@H](Cc1cnc[nH]1)C(N)=O)C(C)C` (H-IS[Cha]VNLDAEFRH-NH2), 0.689 h. Regarding `CC[C@H](C)[C@H](N)C(=O)N[C@@H](CO)C(=O)N[C@@H](CCC(=O)O)C(=O)N[C@H](C(=O)N[C@@H](Cc1cccs1)C(=O)N[C@@H](Cc1cccs1)C(=O)O)[C@@H](C)CC` (H-ISEI[2Thi][2Thi]-OH), the retention time worked out at 0.63 h. The same measure for `CC[C@H](C)[C@H](N)C(=O)N[C@@H](CO)C(=O)N[C@@H](CCC(=O)O)C(=O)N[C@H](C(=O)N[C@@H](CC(N)=O)C(=O)N[C@@H](CC(C)C)C(=O)N[C@H](C(=O)N[C@@H](C)C(=O)N[C@@H](CCC(=O)O)C(=O)N[C@@H](Cc1ccccc1)C(=O)N[C@@H](CCCNC(=N)N)C(=O)N[C@@H](Cc1cnc[nH]1)C(N)=O)N1Cc2ccccc2C[C@H]1C(=O)O)C(C)C` (H-ISEVNL[X1]AEFRH-NH2): 0.648 h. To `CC[C@H](C)[C@H](N)C(=O)N[C@@H](CO)C(=O)N[C@@H](CCC(=O)O)C(=O)N[C@H](C(=O)N[C@@H](CCCNC(N)=O)C(=O)N[C@@H](CC(C)C)C(=O)N[C@@H](CC(=O)O)C(=O)N[C@@H](C)C(=O)N[C@@H](CCC(=O)O)C(=O)N[C@@H](Cc1ccccc1)C(=O)N[C@@H](CCCNC(=N)N)C(=O)N[C@@H](Cc1cnc[nH]1)C(N)=O)C(C)C` (H-ISEV[Cit]LDAEFRH-NH2) belongs 0.482 h; to `CC[C@H](C)[C@H](N)C(=O)N[C@@H](CO)C(=O)N[C@H](C(=O)N[C@H](C(=O)N[C@@H](CC(N)=O)C(=O)N[C@@H](CC(C)C)C(=O)N[C@@H](CC(=O)O)C(=O)N[C@@H](C)C(=O)N[C@@H](CCC(=O)O)C(=O)N[C@@H](Cc1ccccc1)C(=O)N[C@@H](CCCNC(=N)N)C(=O)N[C@@H](Cc1cnc[nH]1)C(N)=O)C(C)C)C(C)(C)C` (H-IS[Tle]VNLDAEFRH-NH2), 0.588 h.

Regarding `CC[C@H](NC(=O)[C@H](CCC(=O)O)NC(=O)[C@H](CO)NC(=O)[C@@H](N)[C@@H](C)CC)C(=O)N[C@@H](CC(N)=O)C(=O)N[C@@H](CC(C)C)C(=O)N[C@@H](CC(=O)O)C(=O)N[C@@H](C)C(=O)N[C@@H](CCC(=O)O)C(=O)N[C@@H](Cc1ccccc1)C(=O)N[C@@H](CCCNC(=N)N)C(=O)N[C@@H](Cc1cnc[nH]1)C(N)=O` (H-ISE[Abu]NLDAEFRH-NH2), the retention time stood at 0.47 h.
